# Experimental data as given in patent publication US7405231B2, “Oxidized thioether derivatives” (Hoffmann-La Roche Inc., priority 2004, dated 2008).
# How the values were obtained:
# [1] = target: T1, HER2 (Homo sapiens, UniProt P04626); test: Inhibition of HER2 phosphorylation in Calu3 tumor cell line; format: cell-based; conditions: Calu3 cells; for percentage of inhibition of phosphorylation compared with the reference compound: 1 μM compound, versus Example 4, p. 88, WO 01/77107; for inhibition at 1 µM: Calu-3, read-out: Percent inhibition of HER2-phosphorylation
# T1 construct: endogenous in cells; host or cells: Calu3 tumor cell line
# Method: Inhibition of HER2 phosphorylation in Calu3 tumor cell line.
# 2×10^5 Calu3 cells per well were plated in a 12-well plate. After 4 days cells were starved for 16 h in DMEM(Dulbecco's Modified Eagle Medium)/0.5% FCS/1% Glutamine. During this time cells were incubated with 1 μM of a compound according to the present invention. Afterwards cells were lysed in lyses buffer containing 1% Triton, 10% Glycerol, 1 mM EGTA, 1.5 mM MgCl2, 150 mM NaCl, 50 mM Hepes pH 7.5, 1 mM PMSF, 10 μg/mL Aprotinin and […] Orthovanadate. Cell lysates were analyzed on a SDS PAGE and after transfer to a nitrocellulose membrane detected with a rabbit antibody specifically recognizing the pY 1248 in HER2 (Cell Signaling). After incubation with an anti rabbit antibody coupled to POD (Biorad) (Peroxidase available from Biorad, Munich, Germany) signals were detected by chemiluminescence (ECL,Amersham). Inhibition of HER2 phosphorylation is calculated as percentage of the DMSO treated control. This percentage is calculated according to the following formula: Inhibition in %=100-(Phosphorylated-HER2-Signal of Test Sample* 100/Phosphorylated-HER2-Signal DMSO-control).
# [2] = compound concentration 1 μM, 16 h, pY 1248 in HER2, percentage of the DMSO treated control
# T1 sequence (P04626 23-1255): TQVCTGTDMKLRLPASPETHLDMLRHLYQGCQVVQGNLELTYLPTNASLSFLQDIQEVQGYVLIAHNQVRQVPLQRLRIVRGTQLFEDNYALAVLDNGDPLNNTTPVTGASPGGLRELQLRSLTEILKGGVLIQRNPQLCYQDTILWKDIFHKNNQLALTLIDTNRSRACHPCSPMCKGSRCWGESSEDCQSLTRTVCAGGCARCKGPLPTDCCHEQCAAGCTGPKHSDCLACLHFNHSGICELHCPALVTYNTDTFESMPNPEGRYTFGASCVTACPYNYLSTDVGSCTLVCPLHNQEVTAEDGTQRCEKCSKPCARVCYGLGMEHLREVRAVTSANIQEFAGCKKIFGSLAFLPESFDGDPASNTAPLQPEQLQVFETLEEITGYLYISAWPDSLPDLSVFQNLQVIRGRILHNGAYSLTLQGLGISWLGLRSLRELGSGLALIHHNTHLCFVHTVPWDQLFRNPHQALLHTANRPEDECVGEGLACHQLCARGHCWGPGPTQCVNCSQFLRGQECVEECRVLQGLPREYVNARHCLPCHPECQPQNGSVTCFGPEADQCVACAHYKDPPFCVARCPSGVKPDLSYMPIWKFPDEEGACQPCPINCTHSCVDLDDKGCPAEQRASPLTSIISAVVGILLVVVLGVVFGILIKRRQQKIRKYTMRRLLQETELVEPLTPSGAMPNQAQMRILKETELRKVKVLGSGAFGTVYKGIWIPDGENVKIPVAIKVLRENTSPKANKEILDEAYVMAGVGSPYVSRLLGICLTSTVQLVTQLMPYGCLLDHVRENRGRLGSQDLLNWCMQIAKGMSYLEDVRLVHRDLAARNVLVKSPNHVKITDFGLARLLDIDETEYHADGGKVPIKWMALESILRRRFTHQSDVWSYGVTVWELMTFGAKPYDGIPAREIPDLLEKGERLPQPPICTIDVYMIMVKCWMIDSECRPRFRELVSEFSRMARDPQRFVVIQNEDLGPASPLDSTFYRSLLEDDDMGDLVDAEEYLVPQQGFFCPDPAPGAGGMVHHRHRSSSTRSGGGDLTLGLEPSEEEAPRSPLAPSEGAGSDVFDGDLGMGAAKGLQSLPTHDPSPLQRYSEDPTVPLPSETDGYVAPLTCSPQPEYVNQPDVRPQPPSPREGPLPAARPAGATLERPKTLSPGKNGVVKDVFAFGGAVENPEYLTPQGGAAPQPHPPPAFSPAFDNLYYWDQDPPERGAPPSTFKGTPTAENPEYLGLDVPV
melting point,"inhibition at 1 µM [1, 2]",Compound,percentage of inhibition of phosphorylation compared with the reference compound [1],"Percent inhibition of HER2-phosphorylation [1, 2]"
111 to 113 °C,,"[O-][S+](c1ccc(/C=C/c2nc(COc3ccc(CNCCn4ccnn4)cc3)co2)cc1)C(F)(F)F (stereo not shown) [Example 3, (2-[1,2,3]Triazol-1-yl-ethyl)-(4-{2-[(E)-2-(4-trifluoromethanesulfinyl-phenyl)-vinyl]-oxazol-4-ylmethoxy}-benzyl)-amine]",,
140 to 142 °C,,"Cc1cc(OCc2coc(C=Cc3ccc(S(=O)(=O)C(F)(F)F)cc3)n2)ccc1CCCCn1ccnn1 [Example 20, 1-[4-(2-Methyl-4-{2-[2-(4-trifluoromethanesulfonyl-phenyl)-vinyl]-oxazol-4-ylmethoxy}-phenyl)-butyl]-1H-[1,2,3]triazole]",,
122 to 123 °C,94.4%,"[O-][S+](c1ccc(/C=C/c2nc(COc3ccc(CCCCn4ccnn4)cc3)co2)cc1)C(F)(F)F (stereo not shown) [example 4, 1-[4-(4-{2-[(E)-2-(-4-Trifluoromethanesulfinyl-phenyl)-vinyl]-oxazol-4-ylmethoxy}-phenyl)-butyl]-1H-[1,2,3]triazole]",higher percentage of inhibition of phosphorylation,

# More lines, now with the values behind:
Compound,melting point,"inhibition at 1 µM [1, 2]",percentage of inhibition of phosphorylation compared with the reference compound [1],"Percent inhibition of HER2-phosphorylation [1, 2]"
"O=S(=O)(NCCn1ccnn1)c1ccc(OCc2coc(C=Cc3ccc([S+]([O-])C(F)(F)F)cc3)n2)cc1 (stereo not shown) [Example 13, N-(2-[1,2,3] Triazol-1-yl-ethyl)-4-{2-[2-(4-trifluoromethanesulfinyl-phenyl)-vinyl]-oxazol-4-ylmethoxy}-benzenesulfonamide]",172 to 174 °C,,,
"[O-][S+](c1ccc(C=Cc2nc(COc3ccc(CCCCn4ccnc4)cc3)co2)cc1)C(F)(F)F (stereo not shown) [example 1, 4-[4-(4-Imidazol-1-yl-butyl)-phenoxymethyl]-2′-[2-(4-trifluoromethanesulfinyl-phenyl)-vinyl]-oxozole]",,,higher percentage of inhibition of phosphorylation,92.5%
"O=S(=O)(c1ccc(/C=C/c2nc(COc3ccc(CCCCn4ccnn4)cc3)co2)cc1)C(F)(F)F [example 5, 1-[4-(4-{2-[(E)-2-(-4-Trifluoromethanesulfonyl-phenyl)-vinyl]-oxazol-4-ylmethoxy}-phenyl)-butyl]-1H-[1,2,3]triazole]",133 to 135 °C,82.9%,higher percentage of inhibition of phosphorylation,
"[O-][S+](c1ccc(/C=C/c2nc(COc3ccc(CCCCc4nn[nH]n4)cc3)co2)cc1)C(F)(F)F (stereo not shown) [example 7, 5-[4-(4-{2-[(E)-2-(-4-Trifluoromethanesulfinyl-phenyl)-vinyl]-oxazol-4-ylmethoxy}-phenyl)-butyl]-2H-tetrazole]",,52.9%,higher percentage of inhibition of phosphorylation,
"[O-][S+](c1ccc(/C=C/c2nc(COc3ccc(CCCCn4ccnn4)cc3)cs2)cc1)C(F)(F)F (stereo not shown) [example 15, 1-[4-(4-{2-[(E)-2-(4-Trifluoromethanesulfinyl-phenyl)-vinyl]-thiazol-4-ylmethoxy}-phenyl)-butyl]-1H-[1,2,3]triazole]",118 to 119 °C,73.6%,higher percentage of inhibition of phosphorylation,
